Measured values taken from patent US20210198269A1, “INHIBITORS OF GLUCOSE TRANSPORTERS (GLUTs)” (LEAD DISCOVERY CENTER GMBH, priority 2018, published 2021).

How the values were obtained:
Assay type in all cases: cell-based
[1] = target: T1, GLUT1 (Homo sapiens, UniProt P11166); test: GLUT1 transporter activity assay (2-DG uptake) in DLD1 cells; conditions: DLD1 cell line; read-out: GLUT1 inhibitory activity (IC50)
T1 construct: host or cells: DLD-1 (DLD1) cells
T1 sequence (P11166 1-492): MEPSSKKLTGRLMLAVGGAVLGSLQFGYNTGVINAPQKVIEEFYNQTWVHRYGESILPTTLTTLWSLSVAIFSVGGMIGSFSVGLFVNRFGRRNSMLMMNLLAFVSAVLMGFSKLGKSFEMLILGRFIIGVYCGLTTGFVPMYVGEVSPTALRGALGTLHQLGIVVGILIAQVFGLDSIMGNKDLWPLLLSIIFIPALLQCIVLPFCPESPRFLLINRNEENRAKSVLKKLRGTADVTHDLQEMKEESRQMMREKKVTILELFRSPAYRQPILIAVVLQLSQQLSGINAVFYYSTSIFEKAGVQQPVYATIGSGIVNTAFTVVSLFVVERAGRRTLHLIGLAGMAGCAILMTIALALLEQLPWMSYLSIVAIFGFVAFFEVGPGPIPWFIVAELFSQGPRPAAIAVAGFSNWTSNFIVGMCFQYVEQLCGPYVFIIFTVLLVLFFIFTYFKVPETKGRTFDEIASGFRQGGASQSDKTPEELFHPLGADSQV
Excerpt: (§1) GLUT 1, 2, 3 and 4 Transporter Activity Assays
(§2) Assays were based on the specificity assays reported by Kapoor et al., Proceedings of the National Academy of Sciences 2016, 113 (17) 4711-4716. For GLUT1, GLUT2, GLUT3 and GLUT4 specificity testing DLD1, CHO-hGLUT2, DLD-1-GLUT1−/− and CHO-hGLUT4 cell lines were used.
(§3) Assay protocols for 2-deoxy-Glucose (2-DG) Uptake Assay with DLD1 or DLD1-Glut1(−/−) cells or 7,000 CHOK1-SLC2A4 cells lines:
(§4) 14,000 DLD1 or DLD1-Glut1(−/−) cells or 7,000 CHOK1-SLC2A4 cells were seeded in black, clear bottom 384-well plates in glucose- and phenolred-free RPMI1640 medium supplemented with 1% FCS and 2 mM L-glutamine and allowed to attach overnight. Next day, cells were washed and incubated with compounds or DMSO and 1 mM 2-DG in glucose- and phenolred-free RPMI1640 medium for 30 min. Cells were then washed and lysed in 0.06 M HCl and 1% CHAPS for 15 min at 65° C. The amount of 2-DG in the lysate was determined by means of enzyme-coupled assay. For this 16 U/mL glucose-6-phosphate dehydrogenase, 0.2 U/mL diaphorase, 0.1 mM NADP^+ and 10 μM resazurin were added to the lysates. Resorufin fluorescence was determined as a measure of 2-DG uptake at ex/em 535/590 nm with a Victor Multilabel plate reader (Perkin Elmer). Blank values were subtracted from all readings and values were normalized to the DMSO control.

[2] = target: T2, GLUT3 (Homo sapiens, UniProt P11169); test: GLUT3 transporter activity assay (2-DG uptake) in DLD-1-GLUT1-/- cells; conditions: DLD-1-GLUT1-/- cell line; read-out: GLUT3 inhibitory activity (IC50)
T2 construct: host or cells: DLD-1-GLUT1(-/-) cells
T2 sequence (P11169 1-496): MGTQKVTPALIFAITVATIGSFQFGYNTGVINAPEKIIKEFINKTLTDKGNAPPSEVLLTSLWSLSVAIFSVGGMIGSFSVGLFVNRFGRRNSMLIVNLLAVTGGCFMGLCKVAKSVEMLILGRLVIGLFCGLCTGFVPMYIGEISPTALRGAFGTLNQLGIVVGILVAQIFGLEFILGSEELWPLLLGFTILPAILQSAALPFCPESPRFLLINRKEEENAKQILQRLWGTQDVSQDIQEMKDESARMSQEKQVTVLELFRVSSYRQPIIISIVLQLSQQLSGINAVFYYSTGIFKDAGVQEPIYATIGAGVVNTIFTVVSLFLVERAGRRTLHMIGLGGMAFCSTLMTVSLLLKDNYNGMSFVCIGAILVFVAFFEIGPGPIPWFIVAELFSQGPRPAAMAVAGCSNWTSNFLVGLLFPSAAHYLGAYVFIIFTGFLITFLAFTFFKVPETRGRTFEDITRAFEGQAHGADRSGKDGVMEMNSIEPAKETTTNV
Excerpt: as §1, §2, §3, §4

[3] = target: T3, GLUT4 (Homo sapiens, UniProt P14672); test: GLUT4 transporter activity assay (2-DG uptake) in CHO-hGLUT4 cells; conditions: CHO-hGLUT4 cell line; read-out: GLUT4 inhibitory activity (IC50)
T3 sequence (P14672 1-509): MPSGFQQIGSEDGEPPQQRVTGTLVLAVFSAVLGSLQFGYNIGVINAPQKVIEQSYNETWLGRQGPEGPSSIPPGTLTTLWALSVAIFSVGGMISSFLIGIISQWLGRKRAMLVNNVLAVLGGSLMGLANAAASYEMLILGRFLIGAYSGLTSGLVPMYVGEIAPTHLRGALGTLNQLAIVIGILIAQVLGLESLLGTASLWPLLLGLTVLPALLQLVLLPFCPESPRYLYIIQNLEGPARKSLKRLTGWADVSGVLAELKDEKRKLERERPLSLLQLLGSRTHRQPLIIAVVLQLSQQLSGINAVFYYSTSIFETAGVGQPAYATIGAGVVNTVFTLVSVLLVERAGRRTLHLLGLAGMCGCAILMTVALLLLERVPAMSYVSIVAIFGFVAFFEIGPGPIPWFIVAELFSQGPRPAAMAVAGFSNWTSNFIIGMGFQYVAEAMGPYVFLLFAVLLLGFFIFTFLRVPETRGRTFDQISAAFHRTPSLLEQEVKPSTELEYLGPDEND
Method: CHOK1-SLC2A4 cells were generated by transfection of CHOK1 cells with pCMV6-Entry-GLUT4 (Origene #SC125240) using Lipofectamin2000 according to the supplier's instructions. Briefly, 1.5E5 cells/well CHOK1 cells were seeded in 6-well cell culture plates. After overnight incubation, DNA-lipid complexes (2 μg plasmid DNA, DNA:lipid ratio 1:10) were prepared in OptiMEM and then added to the cells. After 5 days incubation, 800 μg G418 was added to the culture medium to generate a stable polyclone. For monoclone selection, single cells were re-plated in 96-well plates, expanded and selected by transgene overexpression and functional performance.
as §1, §2, §3, §4

[4] = test system: HCT116 cells; test: 2-Deoxy-Glucose (2-DG) uptake assay in HCT116 cells; conditions: Homo sapiens, HCT-116, 0.5 h, 1 mM 2-DG, 30 min, read-out: IC50 determined for the inhibition of 2-DG uptake in HCT116 cells
Method: The 2-DG uptake assay was carried out as described by Yamamoto N. et al. with slight modifications ([…]). Briefly, 40,000 HCT116 or CHO cells were seeded in black, clear bottom 96-well plates and allowed to attach overnight. Cells were incubated with compounds or DMSO and 1 mM 2-DG in glucose-free KRB buffer (20 mM HEPES, 5 mM KH2PO4, 1 mM MgSO4, 1 mM CaCl2), 136 mM NaCl, 0.1% BSA, pH 7.4) for 30 min. In the case of GLUT-4 transfected cells, Insulin (100 μg/mL) was added to the buffer. Cells were then washed and lysed in 0.06 M HCl and 1% CHAPS for 15 min at 65° C. while shaking. The amount of 2-DG in the lysate was determined by means of enzyme-coupled assay. For this 6.4 U/mL glucose-6-phosphate dehydrogenase, 0.2 U/mL diaphorase, 0.1 mM NADP^+ and 0.025 mg/mL resazurin were added to the lysates. Resorufin fluorescence was determined as a measure of 2-DG uptake at ex/em 535/590 nm with a Tecan Infinite M200 plate reader (Tecan). Blank values were subtracted from all readings and values were normalized to the DMSO control.

[5] = target: T4, GLUT2 (Homo sapiens, UniProt P11168); test: GLUT2 transporter activity assay in CHO-hGLUT2 cells (indirect, intracellular ATP levels); conditions: CHO-hGLUT2 cell line; read-out: GLUT2 inhibitory activity (IC50)
T4 sequence (P11168 1-524): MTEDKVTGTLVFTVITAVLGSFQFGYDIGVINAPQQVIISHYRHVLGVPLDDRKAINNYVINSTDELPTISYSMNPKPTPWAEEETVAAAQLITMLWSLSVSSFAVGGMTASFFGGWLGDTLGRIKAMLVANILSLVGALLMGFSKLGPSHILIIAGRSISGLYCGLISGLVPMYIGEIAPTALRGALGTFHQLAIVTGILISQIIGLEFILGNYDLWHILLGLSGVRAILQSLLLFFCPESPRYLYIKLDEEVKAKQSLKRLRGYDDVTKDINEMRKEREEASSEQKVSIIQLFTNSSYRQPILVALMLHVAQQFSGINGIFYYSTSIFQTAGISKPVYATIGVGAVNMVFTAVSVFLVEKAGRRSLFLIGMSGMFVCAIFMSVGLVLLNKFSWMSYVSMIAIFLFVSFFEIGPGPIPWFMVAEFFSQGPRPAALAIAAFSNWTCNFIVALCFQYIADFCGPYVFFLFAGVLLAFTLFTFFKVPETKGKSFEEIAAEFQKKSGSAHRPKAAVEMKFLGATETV
Excerpt: as §1, §2
Example 8-3: Indirect Measurement of GLUT2 (SLC2A2) Activity by Quantification of Intracellular ATP Levels
A combination of small-molecule inhibitors of mitochondrial electron transport chain and glucose catabolism synergistically suppress ATP production and impair cellular viability (Ulanovskaya et al., 2008, 2011; Liu, et al. 2001). We therefore used CHOK1 cells overexpressing SLC2A2 (CHOK1-SLC2A2) in combination with an oxidative phosphorylation inhibitor (Rotenon) to identify GLUT2 inhibitors. CHOK1-SLC2A2 cells were purchased from creative biogene (catNo: CSC-SC014484) and maintained in RPMI1640 supplemented with 10% FBS and 2 mM L-Glutamine. For the Glut2-ATP-Assay, 7,500 cells were seeded in black, clear bottom 384-well plates directly in glucose- and phenolred-free RPMI1640 medium supplemented with 1% FCS and 2 mM L-glutamine and cultured overnight to reduce intracellular ATP levels. Next day, cells were washed and incubated with […] and compounds or DMSO and 2.5 mM fructose in glucose- and phenolred-free RPMI1640 medium for 40 min. The CellTiter-Glo® Luminescence Viability Assay from Promega was used to measure ATP levels. Luminescence was measured with a Victor Multilabel plate reader (Perkin Elmer). Blank values were subtracted from all readings and values were normalized to the DMSO control.

Row | SMILES | IC50 [1] [µM] | IC50 [2] [µM] | IC50 [3] [µM] | IC50 [4] [µM] | IC50 [5] [µM]
1 | Cc1ccc(CCNC(=O)c2cccc(N3C(=O)NC4CC3(C)Oc3c(OCc5ccc([N+](=O)[O-])cc5)cccc34)c2)cc1 (stereo not shown) [Compound A03, 3-(2-Methyl-10-((4-nitrobenzyl)oxy)-4-oxo-5,6-dihydro-2H-2,6-methanobenzo[g][1,3,5]oxadiazocin-3(4H)-yl)-N-(4-methylphenethyl)benzamide] | 0.3 to 1 | 0.3 to 1 | 4 to 10 | ≤ 5 | –
2 | Cc1ccc(CCNC(=O)c2cccc(N3C(=O)NC4CC3(C)Oc3c(OCc5ccc(C(C)(C)C)cc5)cccc34)c2)cc1 (stereo not shown) [Compound A06, 3-(10-((4-(tert-Butyl)benzyl)oxy)-2-methyl-4-oxo-5,6-dihydro-2H-2,6-methanobenzo[g][1,3,5]oxadiazocin-3(4H)-yl)-N-(4-methylphenethyl)benzamide] | – | – | – | ≤ 5 | –
3 | COC(=O)c1cccc(N2C(=O)NC3CC2(C)Oc2c(OCc4ccccc4)cccc23)c1 (stereo not shown) [Compound A37, methyl 3-(10-(benzyloxy)-2-methyl-4-oxo-5,6-dihydro-2H-2,6-methanobenzo[g][1,3,5]oxadiazocin-3(4H)-yl)benzoate] | 1 to 4 | 1 to 4 | 10 to 25 | – | > 25

Results, then the molecule that gave them:

Row | IC50 [1] [µM] | IC50 [2] [µM] | IC50 [3] [µM] | IC50 [4] [µM] | IC50 [5] [µM] | SMILES
4 | 1 to 4 | 1 to 4 | > 25 | ≤ 5 | – | Cc1ccc(CCNC(=O)c2cccc(N3C(=O)NC4CC3(C)Oc3c(OCc5ccccc5C)cccc34)c2)cc1 (stereo not shown) [Compound A02, 3-(2-Methyl-10-((2-methylbenzyl)oxy)-4-oxo-5,6-dihydro-2H-2,6-methanobenzo[g][1,3,5]oxadiazocin-3(4H)-yl)-N-(4-methylphenethyl)benzamide]
5 | 0.3 to 1 | 0.3 to 1 | > 25 | ≤ 5 | – | Cc1ccc(CCNC(=O)c2cccc(N3C(=O)NC4CC3(C)Oc3c(OCc5cccc(Cl)c5)cccc34)c2)cc1 (stereo not shown) [Compound A04, 3-(10-((3-Chlorobenzyl)oxy)-2-methyl-4-oxo-5,6-dihydro-2H-2,6-methanobenzo[g][1,3,5]oxadiazocin-3(4H)-yl)-N-(4-methylphenethyl)benzamide]
6 | ≤ 0.3 | ≤ 0.3 | 4 to 10 | ≤ 5 | – | Cc1ccc(CCNC(=O)c2cccc(N3C(=O)NC4CC3(C)Oc3c(OCc5ccc(C#N)cc5)cccc34)c2)cc1 (stereo not shown) [Compound A05, 3-(10-((4-Cyanobenzyl)oxy)-2-methyl-4-oxo-5,6-dihydro-2H-2,6-methanobenzo[g][1,3,5]oxadiazocin-3(4H)-yl)-N-(4-methylphenethyl)benzamide]
7 | 0.3 to 1 | 0.3 to 1 | 4 to 10 | ≤ 5 | – | Cc1ccc(CCNC(=O)c2cccc(N3C(=O)NC4CC3(C)Oc3c(OCc5ccco5)cccc34)c2)cc1 (stereo not shown) [Compound A07, 3-(10-(Furan-2-ylmethoxy)-2-methyl-4-oxo-5,6-dihydro-2H-2,6-methanobenzo[g][1,3,5]oxadiazocin-3(4H)-yl)-N-(4-methylphenethyl)benzamide]
